Data from paper PMC4785361, “Insight into determinants of substrate binding and transport in a multidrug efflux protein” (Scientific Reports, 2016).

Target: T1, MdtM (Escherichia coli, UniProt P39386)
T1 construct: full-length 410 residues, pBAD/Myc-His A vector (C-terminal Myc-His tag), overproduced in E. coli LMG194, purified in DDM detergent
Assay: biochemical
Assay type: binding
From the text: intrinsic tryptophan fluorescence quenching on MdtM

T1 sequence (P39386 whole entry): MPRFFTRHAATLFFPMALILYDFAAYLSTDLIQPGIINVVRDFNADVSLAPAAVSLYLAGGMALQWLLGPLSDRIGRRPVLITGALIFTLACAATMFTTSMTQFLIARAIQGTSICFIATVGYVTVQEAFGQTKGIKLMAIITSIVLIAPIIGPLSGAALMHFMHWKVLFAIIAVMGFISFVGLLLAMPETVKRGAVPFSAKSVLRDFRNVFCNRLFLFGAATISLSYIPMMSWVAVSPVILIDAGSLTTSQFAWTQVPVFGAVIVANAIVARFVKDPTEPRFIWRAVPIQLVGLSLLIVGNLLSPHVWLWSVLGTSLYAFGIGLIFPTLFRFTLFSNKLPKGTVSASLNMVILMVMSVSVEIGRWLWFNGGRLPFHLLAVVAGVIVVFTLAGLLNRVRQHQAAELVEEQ

SMILES	Kd
c1ccc([P+](c2ccccc2)(c2ccccc2)c2ccccc2)cc1 [TPP+]	0.4 ± 0.145 µM
O=C(N[C@H](CO)[C@H](O)c1ccc([N+](=O)[O-])cc1)C(Cl)Cl [chloramphenicol, 2,2-dichloro-N-[2-hydroxy-1-hydroxymethyl-2-(4-nitro-phenyl)-ethyl]-acetamide]	0.022 ± 0.004 µM
